Laboratory results as given in patent publication US20170246235A1, “GREEN TEA COMPOSITIONS” (priority 2014, published 2017).
Read-outs that look alike come from different tables or passages of the source.

Tests used:
α-amylase = settings: cited from earlier work; for inhibition of α-amylase: at a concentration of 20 μM
[1] = after oral green tea extract; cited from earlier work
[2] = meta-analysis of 97 studies, Manach et al. (2005); cited from earlier work
P. falciparum = assay: Parasite growth measured by radiolabeled hypoxanthine uptake; assay type: cell-based, Plasmodium falciparum
Description: Growth was measured by hypoxanthine uptake using radiolabeled hypoxanthine. […] ([…]) indicates rep. […] Graphpad Prism 6 software was used to analyse the data using the equation for log(inhibitor) vs. normalized response (variable slope).
This example was carried out to determine the parasiticidal efficacy of Phytofare® green tea extract containing catechins. The extract was resuspended in water to give a stock concentration of 58 mg/ml. Parasite growth was measured by hypoxanthine uptake using radiolabeled hypoxanthine as described (Slavic, K. et al., Mol. Biochem. Parasitol. 168:113-116, 2009). […] Each experiment included five technical replicates, and a total of three biological replicates were carried out.
The assay was repeated to obtain the IC50 values for pure caffeine, and for Epigallocatechin Gallate (EGCG) which is present in the extract, obtained from a different source. The concentration ranges used were 352.44 μM to 0.69 μM for caffeine, and 371.01 μM to 0.73 μM for EGCG. These concentrations reflect the molar concentrations present at the highest concentration (μg/ml) of extract used.

HIV-1 integrase = target: T1, HIV-1 integrase (Human immunodeficiency virus type 1 group M subtype B, UniProt P04585); settings: cited from earlier work
T1 construct: Full-length recombinant HIV-1 integrase protein (200 nM, purified from bacteria); literature Express Biotech International; host or cells: bacteria

breast cancer cells = settings: cited from earlier work
MMP2 = settings: cited from earlier work
MMP9 = settings: cited from earlier work
[3] = cited from earlier work

Compound: Oc1cc(O)c2c(c1)O[C@H](c1cc(O)c(O)c(O)c1)[C@H](O)C2 [EGC, epi-gallocatechin]
- inhibition of α-amylase (α-amylase): 13%
- area-under-curve, aqueous humor [1]: 2.035 ± 0.5317 µM·h
- concentration in aqueous humor [1]: 602.9 ± 116.7 nM
- elimination half-life [2]: 2.3 ± 0.2 h

Compound: Cn1c(=O)c2c(ncn2C)n(C)c1=O [caffeine]
- inhibition by caffeine alone (P. falciparum; even at 352.44 μM): no inhibition
- IC50, rep. 1 (P. falciparum; independent IC50 assay rep. 1): no calculable IC50 values
- IC50, rep. 2 (P. falciparum; independent IC50 assay rep. 2): no calculable IC50 values
- IC50, rep. 3 (P. falciparum; independent IC50 assay rep. 3): no calculable IC50 values

Compound: Oc1cc(O)c2c(c1)O[C@H](c1ccc(O)c(O)c1)[C@H](O)C2 [epicatechin]
- elimination half-life [2]: 2.5 ± 0.4 h

Compound: Oc1cc(O)c2c(c1)O[C@H](c1cc(O)c(O)c(O)c1)[C@@H](O)C2 [gallocatechin]
- area-under-curve, retina [1]: 207,000 pmol×h/g
- highest concentration in the retina [1]: 22729.4 ± 4229.4 pmol/g

Compound: epigallocatechin-3-gallate [EGCG]
- IC50 (P. falciparum; ± S.E.M., read-out: IC50, means of the three independent experiments): 80.8 µM
- effect on Km of α-amylase (α-amylase; 50 μM EGCG, p=0.1): did not significantly affect
- Vmax of α-amylase (α-amylase; 50 μM EGCG, reduced from 323.3): 206.1 product/min/mg protein
- inhibition of α-amylase (α-amylase): 34%
- IC50 for HIV-1 integrase (HIV-1 integrase): slightly higher than Raltegravir
- inhibition of invasion by breast cancer cells (breast cancer cells; 20 μg/ml in the media): about 26%
- inhibition of invasion by breast cancer cells (breast cancer cells; 50 μg/ml in the media): ~100%
- production of MMP2 (MMP2; 20 ug/ml in the media): reduced
- activity of MMP2 (MMP2; 50 μg/ml and 100 ug/ml): completely inhibited
- production of MMP9 (MMP9; 20 ug/ml in the media): completely inhibited
- activity of MMP9 (MMP9; 50 μg/ml and 100 ug/ml): completely inhibited
- cellular toxicity to the corneal epithelium ([3]; 0.01% or 0.1% EGCG): No cellular toxicity
- decrease in corneal fluorescein staining compared with the vehicle ([3]; topical 0.1% EGCG): 24.6%
- decrease in corneal fluorescein staining compared with untreated controls ([3]; topical 0.1% EGCG): 41.9%
- decrease in number of CD11b+ cells, central cornea, compared with the vehicle ([3]; topical 0.1% EGCG): 26.1%
- decrease in number of CD11b+ cells, peripheral cornea, compared with the vehicle ([3]; topical 0.1% EGCG): 23.3%
- elimination half-life [2]: 3.5 ± 0.3 h
